Data as given in patent publication US8192962B2, “Processes for detecting toxic substances” (Daikin Industries, Ltd., priority 2001, dated 2012).

Tested on: Metabolism protein genes
Experiment: DNA chip mRNA expression in yeast, metabolism protein genes (Table 7)
Type: cell-based, Saccharomyces cerevisiae S288C
Method: Yeast (Saccharomyces cerevisiae S288C (α SUC2mal mel gap2 CUP1)) were incubated at 25° C. on YPD medium (yeast extract 1%, polypepton 2%, glucose 2%). One of toxic chemical substances was added to the cells at logarithmic growth phase, and the cells were further incubated for two hours. Cells were cultured without any chemical substance in the same condition, and were used as control. Concentrations of the chemical substances were defined to inhibit the growth of the yeast but not lead to death.
After completion of the incubation, the culture was centrifuged to collect the cells. To the cells, sodium acetate buffer (50 mM sodium acetate, 10 mM EDTA, 1% SDS) was added, and the mixture was shaken at 65° C. for five minutes, followed by returning to room temperature, and obtaining the supernatant, of which the procedures were repeated two times. To the supernatant, ½ amount of a solution of phenol/chloroform was added, and the mixture was centrifuged to give a supernatant, which was added with an equal amount of chloroform, and the mixture was centrifuged to give a supernatant. To the supernatant, an equal amount of isopropanol containing 0.3 M sodium acetate was added, and the mixture was allowed to stand at room temperature for 30 minutes, after which the mixture was centrifuged to give a sediment of the whole RNAs. Seventy % ethanol was added to the sediment, and the mixture was again centrifuged to give a sediment, which was then dried and dissolved in water. mRNA was isolated from the whole RNAs as followings. In view of the fact that a poly A chain is attached to the 3′ terminus of mRNA, a polynucleotide having a poly T structure which was immobilized on the surface of latex beads was used to trap the mRNA, and then the mRNA was washed and eluted with spine column (Oligotex-dT30<Super>mRNA Purification Kit, Takara). Reverse transcription of the mRNA was conducted with a reverse transcriptase (Super Script II Reverse Transcriptase; catalogue No. 18064-014, GibcoBRL) using fluorescence-labeled nucleotides to give cDNAs that were introduced with Cy3-dUTP or Cy5-dUTP during the reverse transcription.
The labeled cDNAs were dissolved in TE buffer (10mM Tris-HCl/1 mM EDTA, pH8.0), and the solution was dropped on the DNA chip containing the whole genes of yeast (DNA Chip Research Inc. Japan) so that the cDNAs were hybridized on the DNA chip at 65° C. for over 12 hours. The fluoresces intensity of the DNA chip was read with a scanner, and the ratio relative to the fluorescence intensity resulting from the absence of chemical substance was estimated as the following, which is shown in Tables 1 to 9: […]

CCCCCCCCCCCCc1ccc(S(=O)(=O)[O-])cc1.[Na+] [(17), sodium dodecylbenzosulfonate]
1.1: The level of expressed mRNA in the presence of chemical substance/The level of expressed mRNA in the absence of chemical substance (yeast gene YKL152C) | level of expressed mRNA in the presence/in the absence of chemical substance (yeast gene YLR056W) | The level of expressed mRNA in the presence of chemical substance/The level of expressed mRNA in the absence of chemical substance (yeast gene YLR307W) | The level of expressed mRNA in the presence of chemical substance/The level of expressed mRNA in the absence of chemical substance (yeast gene YLR348C) | The level of expressed mRNA in the presence of chemical substance/The level of expressed mRNA in the absence of chemical substance (yeast gene YML054C) | level of expressed mRNA in the presence/in the absence of chemical substance (yeast gene YMR323W) | The level of expressed mRNA in the presence of chemical substance/The level of expressed mRNA in the absence of chemical substance (yeast gene YNL045W) | The level of expressed mRNA in the presence of chemical substance/The level of expressed mRNA in the absence of chemical substance (yeast gene YNL106C) | The level of expressed mRNA in the presence of chemical substance/The level of expressed mRNA in the absence of chemical substance (yeast gene YNL169C) | level of expressed mRNA in the presence/in the absence of chemical substance (yeast gene YOL086C) | level of expressed mRNA in the presence/in the absence of chemical substance (yeast gene YOL116W) | The level of expressed mRNA in the presence of chemical substance/The level of expressed mRNA in the absence of chemical substance (yeast gene YOL153C) | level of expressed mRNA in the presence/in the absence of chemical substance (yeast gene YOR103C) | level of expressed mRNA in the presence/in the absence of chemical substance (yeast gene YOR108W)
2.2: level of expressed mRNA in the presence/in the absence of chemical substance (yeast gene YPL057C)
1.0: The level of expressed mRNA in the presence of chemical substance/The level of expressed mRNA in the absence of chemical substance (yeast gene YKL035W) | The level of expressed mRNA in the presence of chemical substance/The level of expressed mRNA in the absence of chemical substance (yeast gene YKL104C) | The level of expressed mRNA in the presence of chemical substance/The level of expressed mRNA in the absence of chemical substance (yeast gene YLR273C) | level of expressed mRNA in the presence/in the absence of chemical substance (yeast gene YLR354C) | The level of expressed mRNA in the presence of chemical substance/The level of expressed mRNA in the absence of chemical substance (yeast gene YML100W) | level of expressed mRNA in the presence/in the absence of chemical substance (yeast gene YMR015C) | The level of expressed mRNA in the presence of chemical substance/The level of expressed mRNA in the absence of chemical substance (yeast gene YMR189W) | The level of expressed mRNA in the presence of chemical substance/The level of expressed mRNA in the absence of chemical substance (yeast gene YNL332W) | level of expressed mRNA in the presence/in the absence of chemical substance (yeast gene YOR178C) | The level of expressed mRNA in the presence of chemical substance/The level of expressed mRNA in the absence of chemical substance (yeast gene YOR336W) | level of expressed mRNA in the presence/in the absence of chemical substance (yeast gene YPL148C)
0.7: level of expressed mRNA in the presence/in the absence of chemical substance (yeast gene YLR081W) | The level of expressed mRNA in the presence of chemical substance/The level of expressed mRNA in the absence of chemical substance (yeast gene YLR300W) | level of expressed mRNA in the presence/in the absence of chemical substance (yeast gene YMR261C) | level of expressed mRNA in the presence/in the absence of chemical substance (yeast gene YNL025C)
0.6: level of expressed mRNA in the presence/in the absence of chemical substance (yeast gene YMR205C)
3.0: The level of expressed mRNA in the presence of chemical substance/The level of expressed mRNA in the absence of chemical substance (yeast gene YMR008C)
1.2: level of expressed mRNA in the presence/in the absence of chemical substance (yeast gene YKL060C) | level of expressed mRNA in the presence/in the absence of chemical substance (yeast gene YKL157W) | level of expressed mRNA in the presence/in the absence of chemical substance (yeast gene YLR089C) | The level of expressed mRNA in the presence of chemical substance/The level of expressed mRNA in the absence of chemical substance (yeast gene YML070W) | The level of expressed mRNA in the presence of chemical substance/The level of expressed mRNA in the absence of chemical substance (yeast gene YOL058W) | The level of expressed mRNA in the presence of chemical substance/The level of expressed mRNA in the absence of chemical substance (yeast gene YOR099W) | level of expressed mRNA in the presence/in the absence of chemical substance (yeast gene YOR128C) | level of expressed mRNA in the presence/in the absence of chemical substance (yeast gene YOR176W) | level of expressed mRNA in the presence/in the absence of chemical substance (yeast gene YPR113W) | level of expressed mRNA in the presence/in the absence of chemical substance (yeast gene YPR183W)
1.3: The level of expressed mRNA in the presence of chemical substance/The level of expressed mRNA in the absence of chemical substance (yeast gene YJR155W) | The level of expressed mRNA in the presence of chemical substance/The level of expressed mRNA in the absence of chemical substance (yeast gene YLR299W) | level of expressed mRNA in the presence/in the absence of chemical substance (yeast gene YMR011W) | The level of expressed mRNA in the presence of chemical substance/The level of expressed mRNA in the absence of chemical substance (yeast gene YMR271C) | The level of expressed mRNA in the presence of chemical substance/The level of expressed mRNA in the absence of chemical substance (yeast gene YNL012W) | The level of expressed mRNA in the presence of chemical substance/The level of expressed mRNA in the absence of chemical substance (yeast gene YPL017C)
1.5: level of expressed mRNA in the presence/in the absence of chemical substance (yeast gene YOL108C) | The level of expressed mRNA in the presence of chemical substance/The level of expressed mRNA in the absence of chemical substance (yeast gene YOR130C) | level of expressed mRNA in the presence/in the absence of chemical substance (yeast gene YPL135W)
1.7: The level of expressed mRNA in the presence of chemical substance/The level of expressed mRNA in the absence of chemical substance (yeast gene YNL331C) | The level of expressed mRNA in the presence of chemical substance/The level of expressed mRNA in the absence of chemical substance (yeast gene YOR347C) | The level of expressed mRNA in the presence of chemical substance/The level of expressed mRNA in the absence of chemical substance (yeast gene YPR167C)
1.6: level of expressed mRNA in the presence/in the absence of chemical substance (yeast gene YLR006C) | The level of expressed mRNA in the presence of chemical substance/The level of expressed mRNA in the absence of chemical substance (yeast gene YMR105C) | The level of expressed mRNA in the presence of chemical substance/The level of expressed mRNA in the absence of chemical substance (yeast gene YOL126C) | The level of expressed mRNA in the presence of chemical substance/The level of expressed mRNA in the absence of chemical substance (yeast gene YOL165C)
0.9: level of expressed mRNA in the presence/in the absence of chemical substance (yeast gene YLR044C) | level of expressed mRNA in the presence/in the absence of chemical substance (yeast gene YMR083W) | The level of expressed mRNA in the presence of chemical substance/The level of expressed mRNA in the absence of chemical substance (yeast gene YNL104C) | The level of expressed mRNA in the presence of chemical substance/The level of expressed mRNA in the absence of chemical substance (yeast gene YNL322C) | The level of expressed mRNA in the presence of chemical substance/The level of expressed mRNA in the absence of chemical substance (yeast gene YNR033W) | level of expressed mRNA in the presence/in the absence of chemical substance (yeast gene YOL156W) | level of expressed mRNA in the presence/in the absence of chemical substance (yeast gene YOR002W) | level of expressed mRNA in the presence/in the absence of chemical substance (yeast gene YOR085W) | level of expressed mRNA in the presence/in the absence of chemical substance (yeast gene YOR142W) | level of expressed mRNA in the presence/in the absence of chemical substance (yeast gene YOR251C) | level of expressed mRNA in the presence/in the absence of chemical substance (yeast gene YOR348C) | The level of expressed mRNA in the presence of chemical substance/The level of expressed mRNA in the absence of chemical substance (yeast gene YPR026W)
0.8: level of expressed mRNA in the presence/in the absence of chemical substance (yeast gene YKL148C) | The level of expressed mRNA in the presence of chemical substance/The level of expressed mRNA in the absence of chemical substance (yeast gene YKL215C) | level of expressed mRNA in the presence/in the absence of chemical substance (yeast gene YKR034W) | level of expressed mRNA in the presence/in the absence of chemical substance (yeast gene YLR058C) | The level of expressed mRNA in the presence of chemical substance/The level of expressed mRNA in the absence of chemical substance (yeast gene YLR180W) | The level of expressed mRNA in the presence of chemical substance/The level of expressed mRNA in the absence of chemical substance (yeast gene YMR296C)
2.3: The level of expressed mRNA in the presence of chemical substance/The level of expressed mRNA in the absence of chemical substance (yeast gene YMR020W) | level of expressed mRNA in the presence/in the absence of chemical substance (yeast gene YNL192W) | level of expressed mRNA in the presence/in the absence of chemical substance (yeast gene YPR165W)
3.1: The level of expressed mRNA in the presence of chemical substance/The level of expressed mRNA in the absence of chemical substance (yeast gene YNL231C)
1.4: The level of expressed mRNA in the presence of chemical substance/The level of expressed mRNA in the absence of chemical substance (yeast gene YKL091C) | The level of expressed mRNA in the presence of chemical substance/The level of expressed mRNA in the absence of chemical substance (yeast gene YKL213C) | The level of expressed mRNA in the presence of chemical substance/The level of expressed mRNA in the absence of chemical substance (yeast gene YLL058W) | level of expressed mRNA in the presence/in the absence of chemical substance (yeast gene YPL028W)
0.5: level of expressed mRNA in the presence/in the absence of chemical substance (yeast gene YLR304C) | level of expressed mRNA in the presence/in the absence of chemical substance (yeast gene YLR372W) | level of expressed mRNA in the presence/in the absence of chemical substance (yeast gene YML022W)
2.9: level of expressed mRNA in the presence/in the absence of chemical substance (yeast gene YLR284C)
2.4: The level of expressed mRNA in the presence of chemical substance/The level of expressed mRNA in the absence of chemical substance (yeast gene YNR019W)
2.6: The level of expressed mRNA in the presence of chemical substance/The level of expressed mRNA in the absence of chemical substance (yeast gene YNR059W)
